Source: PubChem BioAssay (NCI)
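All cell lines were grown in 96-well plates and treated with compound for 48 hours. GI50 marks 50% less growth. At the TGI there is no net growth.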

What was measured:
Assay in all cases: NCI anticancer screen, dose series, 48 h
MALME-3M melanoma = tested on: MALME-3M melanoma
SF-295 CNS = tested on: SF-295 CNS
LOX IMVI melanoma = tested on: LOX IMVI melanoma
A498 renal = tested on: A498 renal
NCI-H460 lung = tested on: NCI-H460 lung
HS 578T breast = tested on: HS 578T breast
M14 melanoma = tested on: M14 melanoma
NCI-H522 lung = tested on: NCI-H522 lung
HCC-2998 colon = tested on: HCC-2998 colon
SNB-75 CNS = tested on: SNB-75 CNS

SMILES | GI50 (MALME-3M melanoma) [µM] | TGI (MALME-3M melanoma) [µM] | GI50 (SF-295 CNS) [µM] | TGI (SF-295 CNS) [µM] | GI50 (LOX IMVI melanoma) [µM] | TGI (LOX IMVI melanoma) [µM] | GI50 (A498 renal) [µM] | TGI (A498 renal) [µM] | GI50 (NCI-H460 lung) [µM] | TGI (NCI-H460 lung) [µM] | GI50 (HS 578T breast) [µM] | TGI (HS 578T breast) [µM] | GI50 (M14 melanoma) [µM] | TGI (M14 melanoma) [µM] | GI50 (NCI-H522 lung) [µM] | TGI (NCI-H522 lung) [µM] | TGI (HCC-2998 colon) [µM] | TGI (SNB-75 CNS) [µM] | GI50 (HCC-2998 colon) [µM] | GI50 (SNB-75 CNS) [µM]
Nc1cc(N)c2nc(-c3ccccc3)c(Oc3ccc(Cl)c(Cl)c3)nc2c1 | 15.8 | 37.4 | 13.9 | 31 | 16.1 | 34 | 0.442 | 12.3 | 18.4 | 71.4 | 10.6 | 33.7 | 14.1 | 70.3 | 8.34 | 33.7 |  |  |  | 
COC(=O)C(C(=O)C(=O)Nc1ccc(N)cc1[N+](=O)[O-])c1nc2ccc(Cl)cc2[nH]c1=O (stereo unspecified) |  | > 100 |  | > 100 |  | > 100 |  | > 100 |  | > 100 |  |  |  | > 100 |  |  | > 100 | > 100 |  | 
COc1ccc2c(c1)C(=O)c1c-2n(CCCNCCO)c(=O)c2cc([N+](=O)[O-])ccc12 |  |  | < 0.01 | 0.0115 | < 0.01 | 0.0905 | < 0.015 | < 0.0482 | < 0.01 | 0.0148 |  |  | < 0.01 | 0.117 | < 0.01 | 2.82 | 0.557 | 0.172 | < 0.0232 | < 0.01
O=C(OCc1ccccc1)c1ccccc1-c1c2ccc(=O)cc-2oc2cc(OCc3ccccc3)ccc12 |  | 31.4 |  | 80.3 |  | 21.2 |  | 88.2 |  | 35.8 |  |  |  | 44.7 |  |  | 56 |  |  | 
CC1=C(C(=O)NCc2ccccc2)C(c2ccccc2O)C(C(=O)NCc2ccccc2)=C(C)N1 |  | 30.1 |  | 44.7 |  | 30.1 |  | 33.9 |  | 39.2 |  |  |  | 32.4 |  | 31.4 | 35.9 | > 71.3 |  | 
CCCCCCC(=O)CC(=O)C(=O)Nc1ccccc1C |  | > 100 |  | > 100 |  | > 59 |  | > 100 |  | > 81.2 |  |  |  | > 100 |  | > 100 | > 100 | > 100 |  | 
C/C(=N\NS(=O)(=O)c1ccccc1)c1ccc[n+]([O-])n1 |  |  |  | > 100 |  |  |  | > 100 |  | > 100 |  |  |  | > 100 |  | 79 | > 100 | > 100 |  | 
CCN1C(=O)N(CC)C2C1NN=c1s/c(=C\c3cnc(C)n3C)c(=O)n12 (stereo unspecified) | 2.96 | > 100 | 1.21 | > 100 | 4.43 | > 100 | 0.946 | 5.43 | 2.67 | > 100 |  |  |  |  | 1.33 | 4.34 | 14.5 | 3.44 | 2.65 | 0.324
Nc1nc(N)c(-c2ccc(Cl)cc2)c(/C=C/c2ccc([N+](=O)[O-])cc2)n1 |  |  | 4.39 | > 100 | 4.52 | > 100 | 1.97 | 16.5 | 3.4 | > 100 | 9.97 | > 100 | 7.15 | > 100 | 13.2 | 41.9 |  | 34 |  | 5
CCc1cccc(CC)c1NC(=O)C1=CNC(C)=C(C(=O)Nc2c(CC)cccc2CC)C1c1ccc(O)c(OC)c1 (stereo unspecified) |  | > 100 |  | 73.8 |  | > 100 |  | 76.4 |  | 98.8 |  |  |  | > 100 |  | 77.4 | 88.8 | > 100 |  | 
CCN(CC)c1ccc(N=C2C=CC(=C(C#N)C#N)c3ccccc32)c(C)c1 |  | 4.51 |  | 5.66 |  | 4.75 |  |  |  | 8.41 |  |  |  | 3.6 |  |  |  | 5.69 |  | 
O=S1Cc2ccccc2CSS1 (stereo unspecified) |  | 26.2 |  | 37.9 |  | 17.3 |  | > 100 |  | 32.9 |  |  |  | 27 |  | 19.4 | 73.7 | 43.4 |  | 
CC1(C)N=C(N)N=C(N)N1c1ccc(CCC(=O)Nc2cccc(S(=O)(=O)F)c2)cc1 | 21.3 | > 100 | 7.75 | > 100 | 3.54 | > 100 | 20.1 | > 100 | 3.04 | > 100 | > 100 | > 100 | 6.69 | > 100 |  |  |  | > 100 |  | 5.34
CC(=O)CC(=O)ON(C)C(=O)Cc1ccccc1 |  | > 100 |  | > 100 |  | > 100 |  |  |  | > 100 |  |  |  | > 100 |  | > 100 | > 100 | > 100 |  | 
COc1c(OC2OC(CO)C(O)C(O)C2O)cc2c(c1OC)-c1ccc(OC)c(=O)cc1[C@@H](NC(C)=O)CC2 (stereo partly specified) |  | > 100 |  | > 100 |  | > 100 |  | > 100 |  | > 100 |  |  |  | > 100 |  | 99.3 | > 100 | 84.4 |  | 
NNC(=O)N/N=C1/C(=O)N(c2ccc(Cl)c(Cl)c2)C(=O)C(=O)C1c1nc2ccccc2o1 (stereo unspecified) |  | > 100 |  | > 100 |  | > 100 |  | > 100 |  |  |  |  |  | > 100 |  | > 100 | > 100 | > 100 |  | 
Cc1c(C(=O)Nc2ccc(Cl)cc2)nc(N)nc1-c1cccc(Cl)c1 |  | > 100 |  | > 100 |  |  |  |  |  | > 100 |  |  |  | > 100 |  |  | > 100 |  |  | 
COc1ccc([Se]c2ccc(OC)cc2)cc1 |  | > 100 |  | > 100 |  | > 100 |  | > 100 |  | > 100 |  |  |  | > 100 |  | > 100 | > 100 | 96.8 |  | 
NCCNc1ncnc2ccc(Cl)cc12 |  | > 100 |  | > 100 |  | > 100 |  | > 100 |  | > 100 |  | > 100 |  | > 100 |  | > 100 |  | > 100 |  | 
C=C1CC(CC(=O)C(C)CC2CC(=C)C(=O)O2)OC1=O (stereo unspecified) |  | 28.4 |  | > 100 |  | 29.2 |  | > 100 |  | > 100 |  |  |  | 30 |  |  | > 100 | > 100 |  | 
CC(=O)Nc1cc(CN2CCCCC2)c(O)c2ncccc12 |  | 69.4 |  | > 100 |  | 84.8 |  | > 100 |  | 36.9 |  | > 100 |  | 68.2 |  | > 100 |  |  |  | 
CC(=O)OC1(C#N)CC2OC1C1NC21 (stereo unspecified) |  | > 100 |  |  |  | > 100 |  | > 100 |  | > 100 |  |  |  | > 100 |  | > 100 | > 100 | > 100 |  | 
